This is an account of results in US7335671B2, “Arylcycloalkyl-substituted alkanoic acid derivatives, processes for their preparation and their use as pharmaceuticals” (Sanofi-Aventis Deutschland GmbH, priority 2003, dated 2008).

SMILES strings stand for the structures. pEC50: −log10 of the molar value.

The target in the assay is T1, PPARalpha (Homo sapiens, UniProt Q07869).
T1 construct: human PPARalpha receptor (amino acids S167-Y468); expressed in transfected cells; host or cells: HEK (human embryo kidney) cells, stably transfected; pcDNA3 vector, CMV promoter
T1 sequence (Q07869 167-468): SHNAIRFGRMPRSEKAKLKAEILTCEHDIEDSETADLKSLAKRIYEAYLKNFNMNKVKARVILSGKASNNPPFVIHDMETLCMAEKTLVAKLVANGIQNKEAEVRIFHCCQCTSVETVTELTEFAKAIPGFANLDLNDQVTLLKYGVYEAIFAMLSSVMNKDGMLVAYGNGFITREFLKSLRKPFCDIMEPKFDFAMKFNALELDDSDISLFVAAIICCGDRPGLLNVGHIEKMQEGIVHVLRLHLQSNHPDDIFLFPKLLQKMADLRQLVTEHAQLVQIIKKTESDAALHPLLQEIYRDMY
In words: Cellular PPARalpha assay (stably transfected HEK luciferase reporter cell line). The class given is cell-based. Conditions: GR-GAL4-humanPPARalpha-LBD. As for the experimental part:
Determination of EC50 Values of PPAR agonists in the Cellular PPARalpha Assay
The potency of substances which bind to human PPARA and activate in an agonistic manner is analyzed using a stably transfected HEK cell line (HEK =human embryo kidney) which is referred to here as PPARalpha reporter cell line. It contains two genetic elements, a luciferase reporter element (pδM-GAL4-Luc-Zeo) and a PPARalpha fusion protein (GR-GAL4-humanPPARα-LBD) which mediates expression of the luciferase reporter element depending on a PPARalpha ligand. The stably and constitutively expressed fusion protein GR-GAL4-humanPPARalpha-LBD binds in the cell nucleus of the PPARalpha reporter cell line via the GAL4 protein portion to the GAL4 DNA binding motifs 5′-upstream of the luciferase reporter element which is integrated in the genome of the cell line. There is only little expression of the luciferase reporter gene without addition of a PPARalpha ligand if fatty acid-depleted fetal calf serum (cs-FCS) is used in the assay. PPARα ligands bind and activate the PPARα fusion protein and thereby bring about expression of the luciferase reporter gene. The luciferase which is formed can be detected by means of chemiluminescence via an appropriate substrate.
The PPARalpha reporter cell line was prepared in 2 stages. Firstly, the luciferase reporter element was constructed and stably transfected into HEK cells. For this purpose, five binding sites of the yeast transcription factor GAL4 (each 5′-CGGAGTACTGTCCTCCGAG-3′) (SEQ ID No. 1) were cloned in 5′-upstream of a 68 bp-long minimal MMTV promoter (Genbank Accession # V01 175). The minimal MMTV promoter section contains a CCAAT box and a TATA element in order to enable efficient transcription by RNA polymerase 11. The cloning and sequencing of the GAL4-MMTV construct took place in analogy to the description of Sambrook J. et. al. (Molecular cloning, Cold Spring Harbor Laboratory Press, 1989). Then the complete Photinus pyralis gene (Genbank Accession # M15077) was cloned in 3′-downstream of the GAL4-MMTV element. After sequencing, the luceriferase reporter element consisting of five GAL4 binding sites, MMTV promoter and luciferase gene was recloned into a plasmid which confers zeocin resistance in order to obtain the plasmid pδM-GAL4-Luc-Zeo. This vector was transfected into HEK cells in accordance with the statements in Ausubel, F. M. et al. (Current protocols in molecular biology, Vol. 1-3, John Wiley & Sons, Inc., 1995).
In a second step, the PPARalpha fusion protein (GR-GAL4-humanPPARalpha-LBD was introduced into the stable cell clone described. For this purpose, initially the cDNA coding for the N-terminal 76 amino acids of the glucocorticoid receptor (Genbank Accession # P04150) was linked to the cDNA section coding for amino acids 1-147 of the yeast transcription factor GAL4 (Genbank Accession # P04386). The cDNA of the ligand-binding domain of the human PPARalpha receptor (amino acids S167-Y468; Genbank Accession # S74349) was cloned in at the 3′-end of this GR-GAL4 construct. The fusion construct prepared in this way (GR-GAL4-humanPPARalpha-LBD) was recloned into the plasmid pcDNA3 (from Invitrogen) in order to enable constitutive expression therein by the cytomegalovirus promoter. This plasmid was linearized with a restriction endonuclease and stably transfected into the previously described cell clone containing the luciferase reporter element. The finished PPARalpha reporter cell line which contains a luciferase reporter element and constitutively expresses the PPARalpha fusion protein (GR-GAL4-human PPARalpha-LBD) was isolated by selection with zeocin (0.5 mg/ml) and G418 (0.5 mg/ml).
The activity of PPARalpha agonists is determined in a 3-day assay which is described below: […]
Background: Reporter assays use an easily measured gene product as a stand-in for the process of interest.
`CCC(CCO[C@@H]1CCC[C@H](OCc2nc(-c3ccc(F)cc3)oc2C)C1)C(=O)O` (stereo partly drawn) [Example 1, 2-Ethyl-4{(1R,3S)-3-[2-(4-fluorophenyl)-5-methyloxazol-4-ylmethoxy]-cyclohexyloxy}butanoic acid] had a pEC50 of 7.39.

Take `Cc1cccc(-c2nc(CO[C@H]3CCC[C@@H](OCC4(C(=O)O)CC4)C3)c(C)o2)c1` [Example 5, (1R,3S)-1-[3-(5-methyl-2-m-tolyloxazol-4-ylmethoxy)cyclohexyloxymethyl]cyclo-propanecarboxylic acid]: the pEC50 was 7.16.

In turn, `COCC(CO[C@@H]1CCC[C@H](OCc2nc(-c3cccc(C)c3)oc2C)C1)C(=O)O` (stereo partly shown) [Example 8, (1R′,3S′)-2R/S-Methoxymethyl-3-[3-(5-methyl-2-m-tolyloxazol-4-ylmethoxy)cyclo-hexyloxy]propionic acid] had a negative logarithm of the EC50 (pEC50) of 7.62.

`Cc1cccc(-c2nc(CO[C@H]3CCC[C@@H](OCC(OCc4ccc(C(C)(C)C)cc4)C(=O)O)C3)c(C)o2)c1` (stereo partly drawn) [Example 18, 3-[(1R,3S)-3-(5-Methyl-2-m-tolyloxazol-4-ylmethoxy)cyclohexyloxy]-2-(4-tert-butylbenzyloxy)propanoic acid]: the pEC50 was 8.82.

Compound `C#CCOC(CO[C@@H]1CCC[C@H](OCc2nc(-c3cccc(C)c3)oc2C)C1)C(=O)O` (stereo partly drawn) [Example 22, 3-[(1R,3S)-3-(5-Methyl-2-m-tolyloxazol-4-ylmethoxy)cyclohexyloxy]-2-(2-propynyl-oxy)propionic acid] showed a negative logarithm of the EC50 (pEC50) of 7.37.

`Cc1cccc(-c2nc(CO[C@H]3CCC[C@@H](OCC(OC/C=C/c4ccccc4)C(=O)O)C3)c(C)o2)c1` (stereo partly drawn) [Example 25, 3-[(1R,3S)-3-(5-Methyl-2-m-tolyloxazol-4-ylmethoxy)cyclohexyloxy]-2-(3-phenyl-2-propenyloxy)propionic acid] showed a negative-log EC50 (pEC50) of 8.21.

Take `COC(CO[C@@H]1CCC[C@H](OCc2nc(-c3ccc4ccccc4c3)oc2C)C1)C(=O)O` (stereo partly drawn) [Example 35, 2-Methoxy-3-{(1R,3S)-3-[5-methyl-2-(3-naphthyl)oxazol-4-ylmethoxy]cyclohexyl-oxy}propionic acid]: the pEC50 is 7.08.

Compound `COC(CO[C@@H]1CCC[C@H](OCc2nc(-c3ccc(C)cc3C)oc2C)C1)C(=O)O` (stereo partly drawn) [Example 36, 2-Methoxy-3-{(1R,3S)-3-[5-methyl-2-(2,4-dimethylphenyl)oxazol-4-ylmethoxy]-cyclohexyloxy}propionic acid] had a pEC50 of 7.85.

With `CCCOC(CO[C@@H]1CCC[C@H](OCc2nc(-c3ccc(C)cc3)oc2C)C1)C(=O)O` (stereo partly drawn) [Example 47, 3-{(1R,3S)-3-[5-Methyl-2-(4-methylphenyl)oxazol-4-ylmethoxy]cyclohexyloxy}-2-propoxypropionic acid], the negative logarithm of the EC50 (pEC50) is 9.10.

In the case of `CCCOC(CO[C@@H]1CCC[C@H](OCc2nc(-c3cccc(C(F)(F)F)c3)oc2C)C1)C(=O)O` (stereo partly drawn) [Example 52, 3-{(1R,3S)-3-[5-Methyl-2-(3-trifluoromethylphenyl)oxazol-4-ylmethoxy]cyclohexyl-oxy}-2-propoxypropionic acid], the negative-log EC50 (pEC50) was 7.66.

`CCOC(CO[C@@H]1CCC[C@H](OCc2nc(-c3ccc(OC(F)(F)F)cc3)oc2C)C1)C(=O)O` (stereo partly drawn) [Example 60, 2-Ethoxy-3-{(1R,3S)-3-[5-methyl-2-(4-trifluoromethoxyphenyl)oxazol-4-ylmethoxy]-cyclohexyloxy}propionic acid] showed a pEC50 of 7.59.

For `Cc1ccc(-c2nc(CO[C@H]3CCC[C@@H](OC[C@@H](OCc4ccc(C(F)(F)F)cc4)C(=O)O)C3)c(C)o2)cc1` [Example 81, (R)-3-[(1R,3S)-3-(5-Methyl-2-(4-methylphenyl)oxazol-4-ylmethoxy)cyclohexyloxy]-2-(4-trifluoromethylbenzyloxy)propionic acid], the pEC50 was 9.22.

In the case of `Cc1cccc(-c2nc(CO[C@H]3CCC[C@@H](OCC(Cc4cccc(C(F)(F)F)c4)C(=O)O)C3)c(C)o2)c1` (stereo partly drawn) [Example 91, 2-[(1R,3S)-3-(5-Methyl-2-m-tolyloxazol4-ylmethoxy)cyclohexyloxymethyl]-3-(3-trifluoromethylphenyl)propionic acid], the negative logarithm of the EC50 (pEC50) was 7.11.

What is called pEC50 is −log10 of the EC50, conventionally taken in molar units. Read a low pEC50 as a large EC50.
